Experimental data taken from ChEMBL document CHEMBL3637782, “GSK Tres Cantos Follow-up TB Screening Data” (2016).
In brackets after ≈: the same amount, converted by molar mass.

Tested on: Mycobacterium tuberculosis H37Rv
Test: GSK_TB: Minimum inhibitory concentration against isoniazid and rifampicin resistant clinical isolates of Mycobacterium tuberculosis
Format: functional
Conditions: ATCC25618

O=C(Nc1nc2c(s1)CCCc1cccnc1-2)c1ccccc1C(F)(F)F
MIC: 1.3 µM (≈ 0.506 µg/mL)

COc1ccc(CCNC(=O)C2(n3cnnn3)CCCCC2)cc1
MIC: 2.5 µM (≈ 0.824 µg/mL)

NC(=O)c1ccc(CN(C2CC2)S(=O)(=O)c2ccccc2F)cc1
MIC: 5 µM (≈ 1.74 µg/mL)

Clc1nnc(N2CCCC2)c2ccccc12
MIC: 0.6 µM (≈ 0.14 µg/mL)

COc1ccc(-c2nnc3sc(Cc4csc(C)n4)nn23)cc1
MIC: 1.3 µM (≈ 0.446 µg/mL)

CCOCn1ccc(NS(=O)(=O)c2ccc(N)cc2)nc1=O
MIC: 20 µM (≈ 6.49 µg/mL)

CNc1snc(C)c1C(=O)NCCOc1ccc(OC)cc1
MIC: 0.9 µM (≈ 0.289 µg/mL)

CN(Cc1ccc(Cl)cc1)C(=O)CCc1nc2ccccc2oc1=O
MIC: 1.3 µM (≈ 0.464 µg/mL)

Nc1ccc(C(O)CNCCc2ccccc2)cc1O (centres undefined)
MIC: 1.3 µM (≈ 0.354 µg/mL)
